# Assay results as given in US20240174662A1, “SMALL MOLECULE INHIBITORS OF SALT INDUCIBLE KINASES” (Janssen Biotech, Inc., priority 2021, published 2024).
# Biological target: SIK2 (Homo sapiens (Human), UniProt Q9H0K1)
# Test: SIK2 Enzymatic Assay Version 2 (High ATP)
# Type: biochemical
# Details: 3 mM ATP and 200 μM HDAC5tide final, ADP-Glo Max luminescence
# In short: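 Luminescent ADP-Glo Max read-out: depletion reagent 2 h, then detection reagent 1 h. Before the reaction, compounds were incubated 30 min with enzyme added at 6 nM (twice final concentration), with all steps at room temperature.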
# SIK2, sequence (Q9H0K1 whole entry, species assumed): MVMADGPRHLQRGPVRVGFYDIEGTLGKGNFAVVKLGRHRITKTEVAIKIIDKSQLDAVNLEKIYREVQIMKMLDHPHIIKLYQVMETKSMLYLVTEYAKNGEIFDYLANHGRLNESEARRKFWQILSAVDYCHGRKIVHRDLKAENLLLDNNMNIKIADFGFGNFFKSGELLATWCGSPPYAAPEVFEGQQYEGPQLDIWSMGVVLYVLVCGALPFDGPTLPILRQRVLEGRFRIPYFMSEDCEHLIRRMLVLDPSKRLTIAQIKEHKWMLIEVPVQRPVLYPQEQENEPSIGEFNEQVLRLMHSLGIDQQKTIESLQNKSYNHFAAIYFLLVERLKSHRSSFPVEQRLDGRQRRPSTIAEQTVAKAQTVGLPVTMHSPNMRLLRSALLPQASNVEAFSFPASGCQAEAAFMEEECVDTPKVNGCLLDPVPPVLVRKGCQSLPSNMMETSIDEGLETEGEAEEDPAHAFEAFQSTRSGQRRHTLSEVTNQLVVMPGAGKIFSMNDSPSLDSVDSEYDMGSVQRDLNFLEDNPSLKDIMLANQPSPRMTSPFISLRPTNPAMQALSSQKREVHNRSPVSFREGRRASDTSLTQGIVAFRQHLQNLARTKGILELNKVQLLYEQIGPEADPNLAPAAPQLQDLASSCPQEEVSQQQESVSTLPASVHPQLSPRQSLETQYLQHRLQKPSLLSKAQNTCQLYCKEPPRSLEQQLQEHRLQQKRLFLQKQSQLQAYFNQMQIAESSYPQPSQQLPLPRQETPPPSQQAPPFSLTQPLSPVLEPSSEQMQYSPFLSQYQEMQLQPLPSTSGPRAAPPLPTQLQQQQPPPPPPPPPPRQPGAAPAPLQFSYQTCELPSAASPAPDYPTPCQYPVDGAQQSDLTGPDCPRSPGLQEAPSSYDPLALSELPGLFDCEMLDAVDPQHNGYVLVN
row,SMILES,IC50 [nM]
1,"Cn1ncc(CO[C@H]2CNCC2(F)F)c1-c1ccn2nc(NC(=O)C3CC3)cc2c1 (single isomer, unassigned) [Example 465, (*S)—N-[5-[4-[(4,4-difluoropyrrolidin-3-yl)oxymethyl]-2-methyl-pyrazol-3-yl]pyrazolo[1,5-a]pyridin-2-yl]cyclopropanecarboxamide]",74.9
2,"CN1CC[C@@H]1COc1cnn(C)c1-c1ccn2nc(NC(=O)[C@@H]3C[C@@H]3c3ccccc3)cc2c1 (single isomer, unassigned) [Example 474, (1*R,2*S)—N-(5-(1-methyl-4-(((R)-1-methylazetidin-2-yl)methoxy)-1H-pyrazol-5-yl)pyrazolo[1,5-a]pyridin-2-yl)-2-phenylcyclopropane-1-carboxamide]",428
3,"CO[C@H]1CNC[C@H]1Oc1cnn(C)c1-c1ccn2nc(NC(=O)C3CC3)cc2c1 (stereo in doubt) [Example 5, N-(5-(4-(((3*R,4*S)-4-methoxypyrrolidin-3-yl)oxy)-1-methyl-1H-pyrazol-5-yl)pyrazolo[1,5-a]pyridin-2-yl)cyclopropanecarboxamide]",10.9
4,"CO[C@@H]1CNC[C@@H]1Oc1cnn(C)c1-c1ccn2nc(NC(=O)C3CC3)cc2c1 (stereo in doubt) [Example 232, (rac-cis)-N-[5-[4-(4-methoxypyrrolidin-3-yl)oxy-2-methyl-pyrazol-3-yl]pyrazolo[1,5-a]pyridin-2-yl]cyclopropanecarboxamide]",33.2
5,"Cc1cc(Nc2cc3cc(-c4c(OC[C@@H](O)C56CC(C5)C6)cnn4C)ccn3n2)nc(C)n1 (stereo in doubt) [Example 306, (*S)-1-(3-bicyclo[1.1.1]pentanyl)-2-[5-[2-[(2,6-dimethylpyrimidin-4-yl)amino]pyrazolo[1,5-a]pyridin-5-yl]-1-methyl-pyrazol-4-yl]oxy-ethanol]",36.1
6,"Cc1cnc(Nc2cc3cc(-c4c(CO[C@H]5CN(C)C[C@@H]5C)cnn4C)ccn3n2)cn1 (stereo in doubt) [Example 372, Trans-*S, *R-5-[4-[(1,4-dimethylpyrrolidin-3-yl)oxymethyl]-2-methyl-pyrazol-3-yl]-N-(5-methylpyrazin-2-yl)pyrazolo[1,5-a]pyridin-2-amine]",24.4
7,"Cc1cncc(Nc2cc3cc(-c4c(CO[C@H]5CN(C)C[C@@H]5C)cnn4C)ccn3n2)n1 (stereo in doubt) [Example 374, Trans-*S, *R-5-[4-[(1,4-dimethylpyrrolidin-3-yl)oxymethyl]-2-methyl-pyrazol-3-yl]-N-(6-methylpyrazin-2-yl)pyrazolo[1,5-a]pyridin-2-amine]",17.3
8,"Cc1cnc(Nc2cc3cc(-c4c(CO[C@@H]5CN(C)C[C@H]5C)cnn4C)ccn3n2)cn1 (stereo in doubt) [Example 377, CIS—*R, *R-5-[4-[(1,4-dimethylpyrrolidin-3-yl)oxymethyl]-2-methyl-pyrazol-3-yl]-N-(5-methylpyrazin-2-yl)pyrazolo[1,5-a]pyridin-2-amine]",14.8
9,"Cc1cncc(Nc2cc3cc(-c4c(CO[C@H]5CN(C)C[C@H]5C)cnn4C)ccn3n2)n1 (stereo in doubt) [Example 378, CIS—*R, *R-5-[4-[(1,4-dimethylpyrrolidin-3-yl)oxymethyl]-2-methyl-pyrazol-3-yl]-N-(6-methylpyrazin-2-yl)pyrazolo[1,5-a]pyridin-2-amine]",12.2
10,"Cc1cnc(Nc2cc3cc(-c4c(CO[C@H]5CN(C)C[C@@H]5C)cnn4C)ccn3n2)cn1 (stereo in doubt) [Example 469, (rac-trans)-5-[4-[(1,4-dimethylpyrrolidin-3-yl)oxymethyl]-2-methyl-pyrazol-3-yl]-N-(5-methylpyrazin-2-yl)pyrazolo[1,5-a]pyridin-2-amine]",27.3
11,"Cn1ncc(OC[C@H]2CNCCO2)c1-c1ccn2nc(NC(=O)C3CC3)cc2c1 [Example 6, N-[5-[2-methyl-4-[[(2R)-morpholin-2-yl]methoxy]pyrazol-3-yl]pyrazolo[1,5-a]pyridin-2-yl]cyclopropanecarboxamide]",14
12,"CN1CC[C@H](Oc2cnn(C)c2-c2ccn3nc(Nc4cncc(C(F)(F)F)n4)cc3c2)C1 [Example 7, 5-[2-methyl-4-[(3S)-1-methylpyrrolidin-3-yl]oxy-pyrazol-3-yl]-N-[6-(trifluoromethyl)pyrazin-2-yl]pyrazolo[1,5-a]pyridin-2-amine]",78.7
13,"CN1CC(COc2cnn(C)c2-c2ccn3nc(NC(=O)C4CC4)cc3c2)C1 [Example 8, N-[5-[2-methyl-4-[(1-methylazetidin-3-yl)methoxy]pyrazol-3-yl]pyrazolo[1,5-a]pyridin-2-yl]cyclopropanecarboxamide]",18.9
14,"CN1C[C@@H](C(F)(F)F)[C@@H]1COc1cnn(C)c1-c1ccn2nc(NC(=O)C3CC3)cc2c1 [Example 10, N-[5-[2-methyl-4-[[(2R,3R)-1-methyl-3-(trifluoromethyl)azetidin-2-yl]methoxy]pyrazol-3-yl]pyrazolo[1,5-a]pyridin-2-yl]cyclopropanecarboxamide]",988
15,"CC[C@@H]1CN(C)[C@@H]1COc1cnn(C)c1-c1ccn2nc(NC(=O)C3CC3)cc2c1 [Example 11, N-[5-[4-[[(2S,3R)-3-ethyl-1-methyl-azetidin-2-yl]methoxy]-2-methyl-pyrazol-3-yl]pyrazolo[1,5-a]pyridin-2-yl]cyclopropanecarboxamide]",117
16,"C[C@H]1CN(C)[C@@H]1COc1cnn(C)c1-c1ccn2nc(NC(=O)C3CC3)cc2c1 [Example 12, N-[5-[4-[[(2S,3S)-1,3-dimethylazetidin-2-yl]methoxy]-2-methyl-pyrazol-3-yl]pyrazolo[1,5-a]pyridin-2-yl]cyclopropanecarboxamide]",117

# Now those with a lower IC50, led by results:
row,IC50 [nM],SMILES
1,3.3,"Cc1cc(Nc2cc3cc(-c4c(CO[C@H]5CN(C)C[C@H]5C)cnn4C)ccn3n2)nc(C)n1 (stereo in doubt) [Example 368, CIS—*R, *R—N-(2,6-dimethylpyrimidin-4-yl)-5-[4-[(1,4-dimethylpyrrolidin-3-yl)oxymethyl]-2-methyl-pyrazol-3-yl]pyrazolo[1,5-a]pyridin-2-amine]"
2,2,"Cc1cc(Nc2cc3cc(-c4c(CO[C@@H]5CN(C)C[C@@H]5C)cnn4C)ccn3n2)nc(C)n1 (stereo in doubt) [Example 369, CIS—*S, *S—N-(2,6-dimethylpyrimidin-4-yl)-5-[4-[(1,4-dimethylpyrrolidin-3-yl)oxymethyl]-2-methyl-pyrazol-3-yl]pyrazolo[1,5-a]pyridin-2-amine]"
3,2.9,"Cc1cncc(Nc2cc3cc(-c4c(CO[C@H]5CN(C)C[C@H]5C)cnn4C)ccn3n2)n1 (stereo in doubt) [Example 370, CIS-Rac-5-[4-[(1,4-dimethylpyrrolidin-3-yl)oxymethyl]-2-methyl-pyrazol-3-yl]-N-(6-methylpyrazin-2-yl)pyrazolo[1,5-a]pyridin-2-amine]"
4,3.1,"Cc1cncc(Nc2cc3cc(-c4c(CO[C@@H]5CN(C)C[C@H]5C)cnn4C)ccn3n2)n1 (stereo in doubt) [Example 375, Trans-*R, *S-5-[4-[(1,4-dimethylpyrrolidin-3-yl)oxymethyl]-2-methyl-pyrazol-3-yl]-N-(6-methylpyrazin-2-yl)pyrazolo[1,5-a]pyridin-2-amine]"
5,2.2,"Cc1cncc(Nc2cc3cc(-c4c(CO[C@@H]5CN(C)C[C@@H]5C)cnn4C)ccn3n2)n1 (stereo in doubt) [Example 379, CIS—*S, *S-5-[4-[(1,4-dimethylpyrrolidin-3-yl)oxymethyl]-2-methyl-pyrazol-3-yl]-N-(6-methylpyrazin-2-yl)pyrazolo[1,5-a]pyridin-2-amine]"
6,< 0.847,"Cc1cc(Nc2cc3cc(-c4c(OC[C@H]5CCN5C)cnn4C)ccn3n2)nc(C)n1 [Example 2, N-(2,6-dimethylpyrimidin-4-yl)-5-[2-methyl-4-[[(2R)-1-methylazetidin-2-yl]methoxy]pyrazol-3-yl]pyrazolo[1,5-a]pyridin-2-amine]"
7,8.5,"CN1CC(C)(C)[C@H]1COc1cnn(C)c1-c1ccn2nc(NC(=O)C3CC3)cc2c1 [Example 3, N-[5-[2-methyl-4-[[(2S)-1,3,3-trimethylazetidin-2-yl]methoxy]pyrazol-3-yl]pyrazolo[1,5-a]pyridin-2-yl]cyclopropanecarboxamide]"
8,7.6,"Cn1ncc(OC[C@H]2NCC2(C)C)c1-c1ccn2nc(NC(=O)C3CC3)cc2c1 [Example 4, N-[5-[4-[[(2S)-3,3-dimethylazetidin-2-yl]methoxy]-2-methyl-pyrazol-3-yl]pyrazolo[1,5-a]pyridin-2-yl]cyclopropanecarboxamide]"
9,1.7,"C[C@@H]1C[C@H]1C(=O)Nc1cc2cc(-c3c(OC[C@H]4CCN4C)cnn3C)ccn2n1 [Example 14, (1R,2R)-2-methyl-N-[5-[2-methyl-4-[[(2R)-1-methylazetidin-2-yl]methoxy]pyrazol-3-yl]pyrazolo[1,5-a]pyridin-2-yl]cyclopropanecarboxamide]"
10,9.1,"C[C@H]1C[C@@H]1C(=O)Nc1cc2cc(-c3c(OC[C@H]4CCN4C)cnn3C)ccn2n1 [Example 15, (1S,2S)-2-methyl-N-[5-[2-methyl-4-[[(2R)-1-methylazetidin-2-yl]methoxy]pyrazol-3-yl]pyrazolo[1,5-a]pyridin-2-yl]cyclopropanecarboxamide]"
11,< 0.847,"Cc1cc(Nc2cc3cc(-c4c(OC[C@H]5CCN5C)cnn4C)ccn3n2)nnc1C [Example 17, N-(5,6-Dimethylpyridazin-3-yl)-5-[2-methyl-4-[[(2R)-1-methylazetidin-2-yl]methoxy]pyrazol-3-yl]pyrazolo[1,5-a]pyridin-2-amine]"
12,1,"CCN1CC[C@@H]1COc1cnn(C)c1-c1ccn2nc(Nc3cc(C)c(C)nn3)cc2c1 [Example 18, (R)—N-(5,6-Dimethylpyridazin-3-yl)-5-(4-((1-ethylazetidin-2-yl)methoxy)-1-methyl-1H-pyrazol-5-yl)pyrazolo[1,5-a]pyridin-2-amine]"
13,1.2,"CCN1CC[C@@H]1COc1cnn(C)c1-c1ccn2nc(Nc3cc(C)ncn3)cc2c1 [Example 19, 5-[4-[[(2R)-1-Ethylazetidin-2-yl]methoxy]-2-methyl-pyrazol-3-yl]-N-(6-methylpyrimidin-4-yl)pyrazolo[1,5-a]pyridin-2-amine]"
